Each structure is given as a SMILES string. Activity calls are given as the source filed them. No cut-off for these calls is given here. Bounds are passed on as bounds.

Seven compounds from ChEMBL document CHEMBL4251548, “Efficient click chemistry towards fatty acids containing 1,2,3-triazole: Design and synthesis as potential antifungal drugs for Candida albicans” (2017) can be followed below.

The subject of experiment [1] is Candida albicans. The experiment in a line: Inhibition of hypal growth in Candida albicans SC5314 assessed as length of germ tube at 200 uM after 6 hrs by differential interference contrast microscopic analysis (reference value: 235.2 +/- 40.4 micrometer). It is filed as functional.
The subject of experiment [2] is Candida albicans. The experiment in a line: Inhibition of hypal growth in Candida albicans SC5314 assessed as length of germ tube at 200 uM after 3 hrs by differential interference contrast microscopic analysis (reference value: 149.9 +/- 22.3 micrometer). It is filed as functional.
For experiment [3], the system named is Candida albicans. Put plainly: Inhibition of hypal growth in Candida albicans SC5314 assessed as length of germ tube at 200 uM measured immediately by differential interference contrast microscopic analysis (reference value: 70.3 +/- 12.3 micrometer). It is filed as functional.
The subject of experiment [4] is Candida albicans. The experiment in a line: Inhibition of germ tube formation in Candida albicans SC5314 assessed as reduction in yeast to hyphal conversion at 30 to 300 uM after 4 hrs by differential interference contrast microscopic analysis. It is filed as functional, organism-based.
For experiment [5], the system named is Candida albicans. The experiment in a line: Inhibition of hypal growth in Candida albicans SC5314 assessed as length of germ tube at 200 uM after 9 hrs by differential interference contrast microscopic analysis (reference value: 223.9 +/- 24.5 micrometer). In kind it is functional.
In experiment [6] the test system is Candida albicans. The experiment in a line: Antifungal activity against Candida albicans SC5314 assessed as inhibition of yeast growth at >30 uM after 24 hrs by CLSI broth microdilution method. It is filed as functional, organism-based.
The subject of experiment [7] is Candida albicans. Put plainly: Antifungal activity against Candida albicans SC5314 assessed as inhibition of yeast growth at <15 uM after 24 hrs by CLSI broth microdilution method. In kind it is functional, organism-based. For orientation: Dilution methods test growth across graded concentrations, often in twofold steps.
Experiment [8] deals with Candida albicans. Put plainly: Inhibition of germ tube formation in Candida albicans SC5314 assessed as reduction in yeast to hyphal conversion at >200 uM after 4 hrs by differential interference contrast microscopic analysis relative to control. It is filed as functional.
Experiment [9] deals with Candida albicans. Put plainly: Antifungal activity against Candida albicans SC5314 assessed as inhibition of yeast growth at 60 uM after 24 hrs by CLSI broth microdilution method relative to control. In kind it is functional. To be noted: SC5314, 24 h.
Experiment [10] relates to Candida albicans. The experiment in a line: Antifungal activity against Candida albicans SC5314 assessed as inhibition of yeast growth at >120 uM after 24 hrs by CLSI broth microdilution method. It is filed as functional, organism-based.
In experiment [11] the test system is Candida albicans. Put plainly: Inhibition of germ tube formation in Candida albicans SC5314 assessed as yeast to hyphal conversion at 30 to 300 uM after 2 hrs by differential interference contrast microscopic analysis relative to control. It is filed as functional. Also noted: scale not given: the % may be the effect or the level left.

On to `CCCCCCCCC/C=C\C(=O)O`, for which the Activity worked out at 63.5 um in the experiment with Candida albicans [1], 73.3 um with Candida albicans [2], 65.3 um in the experiment on Candida albicans [3] and 64.2 um in the experiment on Candida albicans [5]. Also, the inhibition entry with Candida albicans [4], with Candida albicans [6] and in the experiment with Candida albicans [7] was “Active” throughout.
In the case of `CCCCCCCCCCn1cc(C(=O)O)nn1`, the Activity is on record as 45 um with Candida albicans [1], 59.1 um in the experiment with Candida albicans [2], 71.8 um in the experiment with Candida albicans [3] and 53.3 um in the experiment with Candida albicans [5]. In the experiment with Candida albicans [8], the “inhibition (INH)” value is recorded as 95%. Besides, in the experiment with Candida albicans [9], the inhibition at 60 µM stood at 90%. Moreover, the inhibition entry with Candida albicans [6] and in the experiment with Candida albicans [7] was “Active” each time.
With `CCCCCCn1cc(C(=O)O)nn1`, the Activity was determined as 207.8 um in the experiment with Candida albicans [1], 142.8 um in the experiment on Candida albicans [2], 66.5 um in the experiment on Candida albicans [3] and 223.5 um in the experiment on Candida albicans [5]. Further, the inhibition result with Candida albicans [4], in the experiment with Candida albicans [10] and in the experiment on Candida albicans [7] was “Active” each time.
As for `CCCCCCCCn1cc(C(=O)O)nn1`, the Activity is given as 54.6 um in the experiment on Candida albicans [1], 64.4 um in the experiment on Candida albicans [2], 73.4 um in the experiment with Candida albicans [3] and 74.2 um with Candida albicans [5]. The “inhibition (INH)” value with Candida albicans [8] is reported as 95%. For the same compound, the inhibition at 60 µM in the experiment with Candida albicans [9] was found to be 90%. For the same compound, the inhibition entry in the experiment with Candida albicans [6], with Candida albicans [10] and in the experiment on Candida albicans [7] was “Active” in each case.
Take `CCCCCCCCc1ccc(C(=O)O)s1`: the Activity in the experiment with Candida albicans [11] is given as more than 95%.
For `O=C(O)c1cn(CCCCCCO)nn1`, the inhibition result in the experiment on Candida albicans [4] and with Candida albicans [7] was “Active” each time.
For `CCCCCCCCOc1ccc(C(=O)O)cc1`, the Activity in the experiment with Candida albicans [11] is given as more than 95%.

What is called inhibition is the change of the read-out against control, counted positive when it falls.
